Source: patent US20250367126A1, “SOFTGEL CAPSULE COMPRISING A H2 RECEPTOR ANTAGONIST” (KENVUE BRANDS LLC, priority 2024, published 2025)
Where two headings read alike, the source gives them in different places.

How the values were obtained:
[1] = Experimental: For this evaluation, excipients were added to clear glass vials at ambient temperature. […] The vials were attached to a Burrell Action Wrist Shaker (mechanical shaker) and agitated for approximately 60 hours (hrs) at ambient conditions.
After shaking for approximately 60 hrs, a first portion of the supernatant solution from each vial was submitted for chemical analysis. A second portion of the remaining dispersions was transferred to amber vials and stored at ambient conditions.

[2] = J Pharm Pharmacol 1993, 45:682-686, cited from earlier work
[3] = Acidified PEG 400 Solution with water [PEG 400 (59.7%) + acetic acid (30.0%) + water (10.3%)], 2 Weeks in Amber Vials
[4] = Acidified PEG 400 Solution with water [PEG 400 (59.7%) + acetic acid (30.0%) + water (10.3%)], 2 Weeks in Clear Vials
[5] = Acidified PEG 400 Solution with water [PEG 400 (59.7%) + acetic acid (30.0%) + water (10.3%)], Initial
[6] = Caprylocaproyl Polyoxyl-8 Glycerides NF (Labrasol), 2 Weeks in Amber Vials
[7] = Caprylocaproyl Polyoxyl-8 Glycerides NF (Labrasol), 2 Weeks in Clear Vials
[8] = Caprylocaproyl Polyoxyl-8 Glycerides NF (Labrasol), Initial
[9] = Medium Chain Triglycerides NF (MCT), 2 Weeks in Amber Vials
[10] = Medium Chain Triglycerides NF (MCT), 2 Weeks in Clear Vials
[11] = Medium Chain Triglycerides NF (MCT), Initial
[12] = Mono/Diglycerides of Capric/Caprylic Acid NF (Capmul MCM), 2 Weeks in Amber Vials
[13] = Mono/Diglycerides of Capric/Caprylic Acid NF (Capmul MCM), 2 Weeks in Clear Vials
[14] = Mono/Diglycerides of Capric/Caprylic Acid NF (Capmul MCM), Initial
[15] = Polyethylene Glycol 400, NF (PEG 400), 2 Weeks in Amber Vials
[16] = Polyethylene Glycol 400, NF (PEG 400), 2 Weeks in Clear Vials
[17] = Polyethylene Glycol 400, NF (PEG 400), Initial
[18] = Polyoxyl-35 Castor Oil NF (Kolliphor EL), 2 Weeks in Amber Vials
[19] = Polyoxyl-35 Castor Oil NF (Kolliphor EL), 2 Weeks in Clear Vials
[20] = Polyoxyl-35 Castor Oil NF (Kolliphor EL), Initial
[21] = Polysorbate 80 NF (Tween 80), 2 Weeks in Amber Vials
[22] = Polysorbate 80 NF (Tween 80), 2 Weeks in Clear Vials
[23] = Polysorbate 80 NF (Tween 80), Initial

Compound: NC(N)=Nc1nc(CSCCC(N)=NS(N)(=O)=O)cs1 [famotidine]
- Equilibrium solubility of famotidine, mg/g Solvent [1, 3]: 137 mg/g
- Equilibrium solubility of famotidine, mg/g Total [1, 3]: 121 mg/g
- Equilibrium solubility of famotidine, mg/g Solvent [1, 4]: 141 mg/g
- Equilibrium solubility of famotidine, mg/g Total [1, 4]: 124 mg/g
- Equilibrium solubility of famotidine, mg/g Solvent [1, 5]: 160 mg/g
- Equilibrium solubility of famotidine, mg/g Total [1, 5]: 138 mg/g
- Equilibrium solubility of famotidine, mg/g Solvent [1, 6]: 58 mg/g
- Equilibrium solubility of famotidine, mg/g Total [1, 6]: 55 mg/g
- Equilibrium solubility of famotidine, mg/g Solvent [1, 7]: 61 mg/g
- Equilibrium solubility of famotidine, mg/g Total [1, 7]: 57 mg/g
- Equilibrium solubility of famotidine, mg/g Solvent [1, 8]: 61 mg/g
- Equilibrium solubility of famotidine, mg/g Total [1, 8]: 57 mg/g
- Equilibrium solubility of famotidine, mg/g Solvent ([1]; Glacial acetic acid, Initial): 318 mg/g
- Equilibrium solubility of famotidine, mg/g Total ([1]; Glacial acetic acid, Initial): 241 mg/g
- Equilibrium solubility of famotidine, mg/g Solvent [1, 9]: ND (“ND” means not detected, famotidine content was below 0.1 mg/g.)
- Equilibrium solubility of famotidine, mg/g Total [1, 9]: ND (“ND” means not detected, famotidine content was below 0.1 mg/g.)
- Equilibrium solubility of famotidine, mg/g Solvent [1, 10]: ND (“ND” means not detected, famotidine content was below 0.1 mg/g.)
- Equilibrium solubility of famotidine, mg/g Total [1, 10]: ND (“ND” means not detected, famotidine content was below 0.1 mg/g.)
- Equilibrium solubility of famotidine, mg/g Solvent [1, 11]: ND (“ND” means not detected, famotidine content was below 0.1 mg/g.)
- Equilibrium solubility of famotidine, mg/g Total [1, 11]: ND (“ND” means not detected, famotidine content was below 0.1 mg/g.)
- Equilibrium solubility of famotidine, mg/g Solvent [1, 12]: 3 mg/g
- Equilibrium solubility of famotidine, mg/g Total [1, 12]: 3 mg/g
- Equilibrium solubility of famotidine, mg/g Solvent [1, 13]: 3 mg/g
- Equilibrium solubility of famotidine, mg/g Total [1, 13]: 3 mg/g
- Equilibrium solubility of famotidine, mg/g Solvent [1, 14]: 3 mg/g
- Equilibrium solubility of famotidine, mg/g Total [1, 14]: 3 mg/g
- Equilibrium solubility of famotidine, mg/g Solvent [1, 15]: 115 mg/g
- Equilibrium solubility of famotidine, mg/g Total [1, 15]: 103 mg/g
- Equilibrium solubility of famotidine, mg/g Solvent [1, 16]: 116 mg/g
- Equilibrium solubility of famotidine, mg/g Total [1, 16]: 104 mg/g
- Equilibrium solubility of famotidine, mg/g Solvent [1, 17]: 118 mg/g
- Equilibrium solubility of famotidine, mg/g Total [1, 17]: 106 mg/g
- Equilibrium solubility of famotidine, mg/g Solvent [1, 18]: 64 mg/g
- Equilibrium solubility of famotidine, mg/g Total [1, 18]: 60 mg/g
- Equilibrium solubility of famotidine, mg/g Solvent [1, 19]: 63 mg/g
- Equilibrium solubility of famotidine, mg/g Total [1, 19]: 60 mg/g
- Equilibrium solubility of famotidine, mg/g Solvent [1, 20]: 64 mg/g
- Equilibrium solubility of famotidine, mg/g Total [1, 20]: 60 mg/g
- Equilibrium solubility of famotidine, mg/g Solvent [1, 21]: 45 mg/g
- Equilibrium solubility of famotidine, mg/g Total [1, 21]: 43 mg/g
- Equilibrium solubility of famotidine, mg/g Solvent [1, 22]: 36 mg/g
- Equilibrium solubility of famotidine, mg/g Total [1, 22]: 35 mg/g
- Equilibrium solubility of famotidine, mg/g Solvent [1, 23]: 45 mg/g
- Equilibrium solubility of famotidine, mg/g Total [1, 23]: 43 mg/g
- Equilibrium solubility of famotidine, mg/g Solvent ([1]; Propylene Glycol USP, Initial): 17 mg/g
- Equilibrium solubility of famotidine, mg/g Total ([1]; Propylene Glycol USP, Initial): 17 mg/g
- solubility of famotidine (in words) ([1]; hydrophilic solvents (PEG 400, acidified PEG 400 solution with water, glacial acetic acid)): High solubility
- aqueous solubility [2]: poor aqueous solubility
- lipophilicity [2]: poor lipophilicity
- stability versus pH ([2]; liquid media): low stability outside a pH range of 6 to 7
